Source: patent US20230172969A1, “Ophthalmic Composition” (Rohto Pharmaceutical Co., Ltd., priority 2020, published 2023)

Test system: Japanese white rabbits
Test: Dryness stress test using rabbits (methylene blue staining of corneas)
Format: in vivo, rabbit
Conditions: eyelids open 3 hours, 100 μL per eye, 0.5% w/v or 3% w/v in physiological saline, compared with sodium chondroitin sulfate around 20,000, p<0.01
Method: Sodium chondroitin sulfate having a weight average molecular weight of around 20,000 (Maruha Nichiro Corporation; sodium chondroitin sulfate in Japanese Pharmaceutical Codex) or sodium chondroitin sulfate having a weight average molecular weight of around 40,000 (SEIKAGAKU CORPORATION; grade N-K) was dissolved in a physiological saline solution (Otsuka Pharmaceutical Factory, Inc.) to 0.5% w/v or 3% w/v separately to prepare test substances.
Rabbits (Japanese white rabbits (KITAYAMA LABES CO., LTD.)) classified into five groups (n=5) according to the method of Nagano et al. (Journal of the Eye, 13(2), 267-270, 1996) were put under general anesthesia, rings obtained by cutting finger portions of gloves into a ring form were then installed on the right and left eyeballs, and the eyelids were opened forcedly. […] The corneas were excised from the eye surfaces, methylene blue dye was then extracted, and the absorbance at 660 nm was measured using the microplate reader Multiskan GO (Thermo Fisher Scientific K.K.). Since a cornea lesion is formed by eye dryness, and the amount of the dye attached to the cornea surfaces increases, it can be estimated that as the absorbance value increases, the eyes become dryer.

sodium chondroitin sulfate was tested, and the “absorbance at 660 nm (methylene blue dye extracted from corneas)” value was “remarkably low”.
